The test system of the series is A-375 cells. The series is described as follows: Cytotoxicity of conjugate versus uncoupled drug, serial dilutions. The format is cell-based. The following applies: drug alone versus conjugate, Figure 6.

Regarding `COc1cccc2c1C(=O)c1c(O)c3c(c(O)c1C2=O)C[C@@](O)(C(=O)CO)C[C@@H]3O[C@H]1C[C@H](N2CCOCC2)[C@H](O)[C@H](C)O1` [MRA, morpholino doxorubicin], the cytotoxicity entry is on record as “Identical cytoxicity”.

The values above are taken from EP0476408A1, “Chemical conjugation of morpholino anthracyclines to antibodies” (RESEARCH CORPORATION TECHNOLOGIES, INC., priority 1990, dated 1992).
